Experiment: Thioflavine T stress test of heat treated liraglutide preparations
Type: physicochemical
Protocol: The physical stability of the liraglutide preparations was evaluated by the use of a florescence method; the Thioflavine T-test where the histological thiazole dye Thioflavine T (ThT) was used as an indicator of fibril formation. By the use of Thioflavine T-test it was possible to determine the presence of fibrils in the different formulations. The method was based on the fluorescent characteristics of ThT.
ThT was used in a stress test applying the different formulations in microtiter plates with ThT at 35° C. and shaken with 350 rpm until the formulations were fibrillated. Graphs of the fluorescence intensity (FI) as a function of time (sec) were obtained.

In the case of CCCCCCCCCCCCCCCC(=O)N[C@@H](CCC(=O)NCCCC[C@H](NC(=O)[C@H](C)NC(=O)[C@H](C)NC(=O)[C@H](CCC(N)=O)NC(=O)CNC(=O)[C@H](CCC(=O)O)NC(=O)[C@H](CC(C)C)NC(=O)[C@H](Cc1ccc(O)cc1)NC(=O)[C@H](CO)NC(=O)[C@H](CO)NC(=O)[C@@H](NC(=O)[C@H](CC(=O)O)NC(=O)[C@H](CO)NC(=O)[C@@H](NC(=O)[C@H](Cc1ccccc1)NC(=O)[C@@H](NC(=O)CNC(=O)[C@H](CCC(=O)O)NC(=O)[C@H](C)NC(=O)[C@@H](N)Cc1cnc[nH]1)[C@@H](C)O)[C@@H](C)O)C(C)C)C(=O)N[C@@H](CCC(=O)O)C(=O)N[C@@H](Cc1ccccc1)C(=O)N[C@H](C(=O)N[C@@H](C)C(=O)N[C@@H](Cc1c[nH]c2ccccc12)C(=O)N[C@@H](CC(C)C)C(=O)N[C@H](C(=O)N[C@@H](CCCNC(=N)N)C(=O)NCC(=O)N[C@@H](CCCNC(=N)N)C(=O)NCC(=O)O)C(C)C)[C@@H](C)CC)C(=O)O [liraglutide, Arg^34, Lys^26(N^ε-(γ-Glu(N^α-hexadecanoyl)))-GLP-1(7-37)], the “physical stability, time of heat treatment” value (60 and 80° C., 120 minutes in comparison to 1 minute of heat treatment) is reported as “improve the physical stability significantly”, the “physical stability by increasing the temperature of heat treatment” value (from 22 to 50-80° C. at pH 9-10) is reported as “significantly improved” and the “physical stability as temperature of heat treatment was increased” value (heat treatment 22 to 80° C.) is reported as “significantly improved”. For the same compound, the “physical stability, time of heat treatment” value (pH 9-10, all temperatures, 15 to 20 minutes compared to 1 minute of heat treatment) was “improve the physical stability significantly”.

Source: patent US8748376B2, “Stable formulations of peptides” (Novo Nordisk A/S, priority 2004, dated 2014)
